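Five concentrations, 48 hours, 96-well plates. At the TGI there is no net growth.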
Key:
Assay in all cases: NCI-60 cell line screen, 48 h
OVCAR-4 ovarian = tested on: OVCAR-4 ovarian
SF-539 CNS = tested on: SF-539 CNS
EKVX NSCLC = tested on: EKVX NSCLC
SK-MEL-5 melanoma = tested on: SK-MEL-5 melanoma
NCI-H460 lung = tested on: NCI-H460 lung
HL-60(TB) leukemia = tested on: HL-60(TB) leukemia
A549 NSCLC = tested on: A549 NSCLC
MDA-MB-231 breast = tested on: MDA-MB-231 breast
OVCAR-3 ovarian = tested on: OVCAR-3 ovarian
HOP-62 NSCLC = tested on: HOP-62 NSCLC
SK-MEL-28 melanoma = tested on: SK-MEL-28 melanoma
HS 578T breast = tested on: HS 578T breast
SNB-75 CNS = tested on: SNB-75 CNS
COLO 205 colon = tested on: COLO 205 colon
HCC-2998 colon = tested on: HCC-2998 colon
OVCAR-8 ovarian = tested on: OVCAR-8 ovarian
HCT-15 colon = tested on: HCT-15 colon
MCF7 breast = tested on: MCF7 breast
RXF 393 renal = tested on: RXF 393 renal
UO-31 renal = tested on: UO-31 renal
MOLT-4 leukemia = tested on: MOLT-4 leukemia
PC-3 prostate = tested on: PC-3 prostate
NCI-H522 lung = tested on: NCI-H522 lung
NCI-H226 lung = tested on: NCI-H226 lung
UACC-257 melanoma = tested on: UACC-257 melanoma
786-0 renal = tested on: 786-0 renal
MDA-N = tested on: MDA-N
HOP-92 NSCLC = tested on: HOP-92 NSCLC
SR leukemia = tested on: SR leukemia
BT-549 breast = tested on: BT-549 breast
MDA-MB-435 = tested on: MDA-MB-435
T-47D breast = tested on: T-47D breast
RPMI-8226 leukemia = tested on: RPMI-8226 leukemia
IGROV1 ovarian = tested on: IGROV1 ovarian
A498 renal = tested on: A498 renal
TK-10 renal = tested on: TK-10 renal
LOX IMVI melanoma = tested on: LOX IMVI melanoma
NCI/ADR-RES ovarian = tested on: NCI/ADR-RES ovarian
CAKI-1 renal = tested on: CAKI-1 renal
CCRF-CEM leukemia = tested on: CCRF-CEM leukemia
HCT-116 colon = tested on: HCT-116 colon
SF-268 CNS = tested on: SF-268 CNS
SN12C renal = tested on: SN12C renal
HT29 colon = tested on: HT29 colon
SK-MEL-2 melanoma = tested on: SK-MEL-2 melanoma
OVCAR-5 ovarian = tested on: OVCAR-5 ovarian
SF-295 CNS = tested on: SF-295 CNS
KM12 colon = tested on: KM12 colon
U251 CNS = tested on: U251 CNS
DU-145 prostate = tested on: DU-145 prostate
SW-620 colon = tested on: SW-620 colon
SK-OV-3 ovarian = tested on: SK-OV-3 ovarian
UACC-62 melanoma = tested on: UACC-62 melanoma
M14 melanoma = tested on: M14 melanoma
K-562 leukemia = tested on: K-562 leukemia
ACHN renal = tested on: ACHN renal
SNB-19 CNS = tested on: SNB-19 CNS
MALME-3M melanoma = tested on: MALME-3M melanoma
NCI-H23 lung = tested on: NCI-H23 lung

Structure (SMILES): C/C(=N\NC(N)=S)c1nc2ncccc2[nH]1
- TGI (OVCAR-4 ovarian): > 100 µM
- TGI (SF-539 CNS): > 100 µM
- TGI (EKVX NSCLC): > 100 µM
- TGI (SK-MEL-5 melanoma): > 100 µM
- TGI (NCI-H460 lung): > 100 µM
- TGI (HL-60(TB) leukemia): > 79.1 µM
- TGI (A549 NSCLC): > 100 µM
- TGI (MDA-MB-231 breast): > 100 µM
- TGI (OVCAR-3 ovarian): > 100 µM
- TGI (HOP-62 NSCLC): > 100 µM
- TGI (SK-MEL-28 melanoma): > 100 µM
- TGI (HS 578T breast): > 100 µM
- TGI (SNB-75 CNS): > 100 µM
- TGI (COLO 205 colon): > 100 µM
- TGI (HCC-2998 colon): > 100 µM
- TGI (OVCAR-8 ovarian): > 100 µM
- TGI (HCT-15 colon): > 100 µM
- TGI (MCF7 breast): > 100 µM
- TGI (RXF 393 renal): > 100 µM
- TGI (UO-31 renal): 82.1 µM
- TGI (MOLT-4 leukemia): > 100 µM
- TGI (PC-3 prostate): > 100 µM
- TGI (NCI-H522 lung): > 100 µM
- TGI (NCI-H226 lung): > 91.4 µM
- TGI (UACC-257 melanoma): > 100 µM
- TGI (786-0 renal): > 100 µM
- TGI (MDA-N): > 100 µM
- TGI (HOP-92 NSCLC): > 100 µM
- TGI (SR leukemia): > 100 µM
- TGI (BT-549 breast): > 96.7 µM
- TGI (MDA-MB-435): > 100 µM
- TGI (T-47D breast): > 100 µM
- TGI (RPMI-8226 leukemia): > 100 µM
- TGI (IGROV1 ovarian): > 100 µM
- TGI (A498 renal): > 100 µM
- TGI (TK-10 renal): > 100 µM
- TGI (LOX IMVI melanoma): > 100 µM
- TGI (NCI/ADR-RES ovarian): > 100 µM
- TGI (CAKI-1 renal): > 100 µM
- TGI (CCRF-CEM leukemia): > 100 µM
- TGI (HCT-116 colon): > 100 µM
- TGI (SF-268 CNS): > 100 µM
- TGI (SN12C renal): > 100 µM
- TGI (HT29 colon): > 100 µM
- TGI (SK-MEL-2 melanoma): > 100 µM
- TGI (OVCAR-5 ovarian): > 100 µM
- TGI (SF-295 CNS): > 100 µM
- TGI (KM12 colon): > 100 µM
- TGI (U251 CNS): > 100 µM
- TGI (DU-145 prostate): > 100 µM
- TGI (SW-620 colon): > 100 µM
- TGI (SK-OV-3 ovarian): > 100 µM
- TGI (UACC-62 melanoma): > 100 µM
- TGI (M14 melanoma): > 100 µM
- TGI (K-562 leukemia): > 100 µM
- TGI (ACHN renal): > 100 µM
- TGI (SNB-19 CNS): > 100 µM
- TGI (MALME-3M melanoma): > 100 µM

Structure (SMILES): CN1C(=O)C23CCCC2CC1(c1ccccc1)S3 (stereo not drawn)
- TGI (OVCAR-4 ovarian): > 100 µM
- TGI (SF-539 CNS): > 100 µM
- TGI (EKVX NSCLC): > 100 µM
- TGI (SK-MEL-5 melanoma): > 100 µM
- TGI (HL-60(TB) leukemia): > 100 µM
- TGI (A549 NSCLC): > 100 µM
- TGI (MDA-MB-231 breast): > 100 µM
- TGI (OVCAR-3 ovarian): > 100 µM
- TGI (HOP-62 NSCLC): > 100 µM
- TGI (SK-MEL-28 melanoma): > 100 µM
- TGI (HS 578T breast): > 100 µM
- TGI (COLO 205 colon): > 100 µM
- TGI (OVCAR-8 ovarian): > 100 µM
- TGI (HCT-15 colon): > 100 µM
- TGI (MCF7 breast): > 100 µM
- TGI (RXF 393 renal): > 100 µM
- TGI (UO-31 renal): > 100 µM
- TGI (MOLT-4 leukemia): > 100 µM
- TGI (PC-3 prostate): > 100 µM
- TGI (NCI-H522 lung): > 100 µM
- TGI (NCI-H226 lung): > 100 µM
- TGI (UACC-257 melanoma): 80.6 µM
- TGI (786-0 renal): > 100 µM
- TGI (MDA-N): > 100 µM
- TGI (HOP-92 NSCLC): > 100 µM
- TGI (SR leukemia): > 100 µM
- TGI (BT-549 breast): > 100 µM
- TGI (MDA-MB-435): > 100 µM
- TGI (T-47D breast): > 100 µM
- TGI (RPMI-8226 leukemia): > 100 µM
- TGI (IGROV1 ovarian): > 100 µM
- TGI (A498 renal): > 100 µM
- TGI (TK-10 renal): > 100 µM
- TGI (LOX IMVI melanoma): > 100 µM
- TGI (NCI/ADR-RES ovarian): > 100 µM
- TGI (CAKI-1 renal): > 100 µM
- TGI (HCT-116 colon): > 100 µM
- TGI (SF-268 CNS): > 100 µM
- TGI (SN12C renal): > 100 µM
- TGI (HT29 colon): > 100 µM
- TGI (SK-MEL-2 melanoma): > 100 µM
- TGI (OVCAR-5 ovarian): > 100 µM
- TGI (SF-295 CNS): > 100 µM
- TGI (KM12 colon): > 100 µM
- TGI (U251 CNS): > 100 µM
- TGI (NCI-H23 lung): > 100 µM
- TGI (DU-145 prostate): > 100 µM
- TGI (SW-620 colon): > 100 µM
- TGI (SK-OV-3 ovarian): > 100 µM
- TGI (UACC-62 melanoma): > 100 µM
- TGI (M14 melanoma): > 100 µM
- TGI (K-562 leukemia): > 100 µM
- TGI (ACHN renal): > 100 µM
- TGI (SNB-19 CNS): > 100 µM
- TGI (MALME-3M melanoma): > 100 µM
